From US6982249B1, “Bradykinin analogs as selective inhibitors of cell activation” (The Regents of the University of Michigan, priority 1997, dated 2006)
Entries after “also recorded” stand apart in the source; their conditions may differ. Read-outs that look alike come from different tables or passages of the source. Square brackets hold non-standard residues; d marks the D form. Ends that are not written are not given here.

Key:
[1] = test system: γ-thrombin-induced platelet aggregation; assay: γ-thrombin-induced platelet aggregation in human platelet-rich plasma; assay type: cell-based; conditions: for inhibition of γ-thrombin-induced platelet aggregation (in words): assay like Example 1A
Procedure: For human platelet aggregation studies, 50 ml human blood was collected into a syringe containing 5 ml of 0.013 M sodium citrate. The anticoagulated blood was centrifuged at 180 xg for 10 minutes at room temperature and the platelet-rich plasma was the supernatant. Platelet aggregation studies in platelet-rich plasma were performed in the cuvette of an aggregometer using γ-thrombin (Haematologic Technologies, Essex Junction, Vt.). After standardization of the aggregometer, the threshold dose of γ-thrombin, defined as the minimal concentration that will induce full platelet aggregation, was ascertained for each preparation of platelet-rich plasma. Typically, the threshold dose of γ-thrombin was between 5 and 30 nM.
Various concentrations of the peptide being tested were added to the platelet-rich plasma in the cuvette of the aggregometer. Platelet aggregation was induced by the addition of γ-thrombin. The degree of platelet aggregation was determined by measuring (in arbitrary units) the increase in light transmission through the stirred suspension of platelet-rich plasma. […]
The peptides synthesized in Example 4 were assayed for the ability to inhibit γ-thrombin-induced platelet aggregation in platelet-rich plasma.

[2] = test system: fibroblasts (thrombin receptor, PAR 1); assay: α-thrombin-induced calcium mobilization in fibroblasts; assay type: cell-based
Procedure: A variation of the calcium mobilization assay uses fibroblasts (which express a single receptor for thrombin, PAR 1), umbilical vein endothelial cells, or other cells which express the cloned thrombin receptor, and which grow in monolayers on the bottom of plastic wells.
Fibroblasts or endothelial cells were grown in 24-96 well plates and loaded with the fluorescent Ca^2+ indicator fura-2 acetyloxymethylester (5 μM, Molecular Probes Inc.) by incubation for 60 min. in HEPES-Tyrode's buffer at 37° C. After washing the cells, the fluorescence of the cells was monitored on a thermostatically controlled heated pad at 37° C. for 1 min, then the cells were incubated with α-thrombin (1 to 5 nM) in the absence or presence of a BK analog. Fluorescence was detected by a Perkin-Elmer LS-50B Luminescence Spectrofluorometer. Excitation was measured at 340 and 380 nm wavelength and emission was assessed at 510 nm. The cytosolic Ca^2+ levels were determined as described above. The Rmax value was determined using 10 mM Ca^2+ in the presence of 20 μM Ionophor A23187; Rmin was determined in the presence of 20 mM EDTA.
The ability of BK analogs to inhibit α-thrombin-induced calcium mobilization in fibroblasts and human umbilical vein endothelial cells (HUVEC) was assayed as described in Example 1C.

[3] = molecular target: T1, NAT12 (thrombin receptor cleavage site) (Homo sapiens, UniProt P25116); assay: Binding of biotinylated NAT12 to peptides linked to microtiter plates; conditions: peptide linked to microtiter plate
T1 construct: spans amino acids 35-46 of the α-thrombin cleavage site on the thrombin receptor
Procedure: (§1) Peptides from a combinatorial library are linked to microtiter plates and the wells are blocked with 1% BSA. Biotinylated-NAT12 is incubated with the microtiter plates. After washing, the presence of biotin-NAT12 attached to the matrix support expressing peptides is detected by incubation with ImmunoPure streptavidin horseradish peroxidase conjugate (Pierce Chemical Co., Rockville Ill.) followed by peroxidase-specific fast reacting substrate, turbo-3,3′,5,5′-tetramethylbenzidine (turbo-TMB, Pierce Chemical Co., Rockville Ill.). After incubation for 5 min at room temperature, the color reaction of the turbo-TMB is stopped by the addition of 1 M phosphoric acid. The bound peptide is quantified by measuring the absorbance of the reaction mixture at 450 nm using a Microplate auto reader EL311 (BioTek Instrument, Winooski Vt.).
The specific binding of biotinylated NAT12 to BK analogs and other peptides was assayed as described in Example 2A.

[4] = In vivo clearance after single intravenous infusion (plasma ELISA); design: species or system New Zealand white rabbits; conditions: rabbit; for half-life: single i.v. infusion
Procedure: (§2) Clearance studies were performed in New Zealand white rabbits weighing between 2.0 and 2.5 kg. Rabbits were premedicated according to the method of Michelson et al., J. Mol. Cell Cardiol. 20, 547 (1988) with 10 mg/kg 1 M xylazine and 10 mg/kg 1 M ketamine. After tracheostomy, intubation, and positive pressure ventilation done with room air (Harvard instruments), stage III surgical anesthesia was maintained with 20 mg/ml of intravenous pentobarbital. A carotid artery and a jugular vein were then exposed. A catheter was inserted into the exposed carotid artery for withdrawal of blood samples and monitoring the animal's blood pressure (Gould, Inc., Cardiovascular Products, Oxnard. Calif.). In a similar manner, a catheter was inserted into the exposed jugular vein for administering the anesthetic and BK analog.
(§3) A single intravenous infusion of BK analog was injected. The amount of BK analog injected was calculated from the weight of the animal such that the blood concentration was 1 mM peptide. For example: for a 2.5 kg rabbit, 7% of its weight gives an estimated blood volume of 175 ml. Accordingly, 89 mg of the control BK fragment SEQ ID NO:7 was injected (giving a 1 mM concentration in the 175 ml plasma). Depending upon the size of the animal, 75 to 90 mg peptide was injected. Blood samples were collected at 2, 4, 6, 8, 10, 20, 30, 40, 60, 90, and 120 minute intervals after infusion into a 0.013 M sodium citrate anticoagulant solution. Plasma was prepared from each of the blood samples collected over time by centrifugation of the blood samples at 10,000×g for two minutes. Aliquots of the plasmas were assayed for the presence of the BK analog antigen by the ELISA technique using a MARKIT-M [1-5] BK assay from Dainippon Pharmaceutical Co., Ltd., Osaka, Japan.

[5] = molecular target: T2, NAT12 (SEQ ID NO:2), α-thrombin cleavage site on the thrombin receptor (Homo sapiens, UniProt P25116); assay: α-thrombin cleavage of NAT12 peptide (HPLC); assay type: biochemical; conditions: 1 mM peptide, 8 nM α-thrombin
T2 construct: spans amino acids 35-46 of the α-thrombin cleavage site on the thrombin receptor
Procedure: The peptide NAT12 (SEQ ID NO:2), which spans amino acids 35-46 of the α-thrombin cleavage site on the thrombin receptor (Vu et al., Cell 64, 1057 (1991), was also used to determine whether BK analogs blocked α-thrombin cleavage of the cloned receptor.
The cleavage studies were performed according to the method of Molino et al., J. Biol. Chem. 270, 11168 (1995). Briefly, NAT12 (SEQ ID NO:2) was dissolved in a solution of 0.01 M NaH2PO4 and 0.15 M NaCl, pH 7.4. The mixture was then incubated with 8 nM α-thrombin for one hour at 37° C. either in the absence (control) or presence of 1 mM of a BK analog. Following incubation, the mixture was applied to a Vyadec C-18 HPLC column in 0.1% trifluoroacetic acid and eluted with a gradient from 0% to 100% of 80% MeCN and 0.1% trifluoroacetic acid. The sizes of the separated products were confirmed by mass spectrometry.
NAT12 (SEQ ID NO:2) produced a single peak (peak 1) when analyzed by HPLC. […] The additional peaks, peaks 3 and 2, represent the cleavage products of NAT12.

[6] = Observations of the animals after bolus injection (blood pressure, pulse, platelet count, bleeding); assay type: in vivo, New Zealand white rabbits; conditions: rabbit, i.v. bolus
Procedure: as §2, §3

RPPGC = molecular target: T3, RPPGC (not fully specified); assay: microtiter plate assay, plate-linked peptide, biotin-NAT12 detected with streptavidin-HRP
T3 peptide: RPPGC
Procedure: as §1, with “turbo-3,3',5,5'-tetramethylbenzidine” for “turbo-3,3′,5,5′-tetramethylbenzidine”
(§4) Peptides from a combinatorial library are linked to a microtiter plate and blocked with 1% BSA. Biotinylated-NAT12 is incubated with the microtiter plate. After washing, the presence of biotin-NAT12 attached to the matrix support expressing peptides is detected by incubation with Immu-noPure streptavidin horseradish peroxidase conjugate (Pierce Chemical Co., Rockville Ill.) followed by peroxidase-specific fast reacting substrate, turbo-3,3',5,5'-tetramethylbenzidine (turbo-TMB, Pierce Chemical Co., Rockville Ill.). After incubation for 5 min at room temperature, the color reaction of the turbo-TMB is stopped by the addition of 1 M phosphoric acid. The bound peptide is quantified by measuring the absorbance of the reaction mixture at 450 nm using a Microplate auto reader EL311 (BioTek Instrument, Winooski Vt.). Compounds which bind the NAT12 peptide are also assayed for the ability to inhibit platelet aggregation and the ability to inhibit calcium mobilization, using the assays described in Example 1.

LNA7 = molecular target: T4, LNA7; assay: as above
T4 construct: Control peptide
T4 peptide: LNAENNA
Procedure: as §1, with “turbo-3,3',5,5'-tetramethylbenzidine” for “turbo-3,3′,5,5′-tetramethylbenzidine”
as §4

FSPFR = molecular target: T5, FSPFR; assay: as above
T5 construct: Control peptide
T5 peptide: FSPFR
Procedure: as §1, with “turbo-3,3',5,5'-tetramethylbenzidine” for “turbo-3,3′,5,5′-tetramethylbenzidine”
as §4

NAT12 = molecular target: T6, NAT12; assay: cell-based or functional assay
T6 chain: NATLDPRSFLLR

Molecule: Arg-Pro
- inhibition of γ-thrombin-induced platelet aggregation (in words) ([1]; human PRP): no inhibitory activity

Molecule: Arg-Pro-Pro [RPP]
- inhibition of α-thrombin-induced calcium mobilization in fibroblasts (FIG. 5) [2]: inhibited calcium mobilization; also recorded: inhibition
- γ-thrombin-induced platelet aggregation at 50 μM peptide (FIG. 2) ([1]; 50 μM peptide, 27.5 nM γ-thrombin): abolish
- fold better as an inhibitor than RPPGF ([1]; 100% inhibition of γ-thrombin-induced aggregation, same conditions): greater than 2.5 fold
- inhibition of γ-thrombin-induced platelet aggregation (in words) ([1]; human PRP): showed inhibition
- concentration that inhibited γ-thrombin-induced platelet aggregation 100% ([1]; mean±SD of 3 or 5 experiments, human PRP): 0.089 mM

Molecule: Arg-Pro-Pro-Ala-Phe (RPPAF; bradykinin analog)
- inhibition of γ-thrombin-induced platelet aggregation (in words) ([1]; human PRP): showed inhibition

Molecule: Arg-Pro-Pro-Amide [RPP-Amide]
- inhibition of γ-thrombin-induced platelet aggregation (in words) ([1]; human PRP): reduced ability

Molecule: Arg-[dP]-Pro
- inhibition of γ-thrombin-induced platelet aggregation (in words) ([1]; human PRP): reduced ability

Molecule: FSPFR: peptide FSPFR (SEQ ID NO: 10) (bradykinin analog)
- specific binding of biotinylated NAT12 to the peptide (FIG. 4) [3]: not

Molecule: LNA7: non-BK analog peptide (SEQ ID NO:8) (LNAENNA; bradykinin analog)
- inhibition of γ-thrombin-induced platelet aggregation ([1]; 1 mM peptide, 20 nM γ-thrombin, human PRP): unable to inhibit
- specific binding of biotinylated NAT12 to the peptide (FIG. 4) [3]: not

Molecule: RPPGC: peptide RPPGC (SEQ ID NO:9) (bradykinin analog)
- specific binding of biotinylated NAT12 to the peptide (FIG. 4) [3]: specifically bound

Molecule: RPPGF [RPPGF, Arg-Pro-Pro-Gly-Phe]
- Cmax ([4]; New Zealand white, plasma, iv, single i.v. infusion 75 to 90 mg, ELISA, two of three rabbits, read-out: peak plasma concentration after infusion): 60 µg/mL
- half-life ([4]; New Zealand white, plasma, iv, read-out: half-life of antigen clearance in plasma, first phase): 2.8 min
- half-life ([4]; New Zealand white, plasma, iv, read-out: half-life of antigen clearance in plasma, second phase): 20 min
- peak plasma concentration after infusion ([4]; single i.v. infusion 75 to 90 mg, ELISA, two of three rabbits): 0.120 mM
- reduction of NAT12 peak 1 area after α-thrombin treatment ([5]; 1 h 37° C., without peptide 81%): 57%
- NAT12 cleavage product peak 2, share of original peak area ([5]; without peptide 37%): 26%
- NAT12 cleavage product peak 3, share of original peak area ([5]; without peptide 44%): 31%
- bleeding at the surgical sites of cutdowns and intubations [6]: no abnormal bleeding
- blood pressure, pulse, and platelet count [6]: remained stable
- unfavorable effects following the bolus injection [6]: No unfavorable effects were observed

Molecule: [dR]-Pro-Pro
- inhibition of γ-thrombin-induced platelet aggregation (in words) ([1]; human PRP): reduced ability

B1: biotinylated NAT12 (peptide)
peptide: NATLDPRSFLLR
modifications: also: biotinylated (position not given here)
notes: It was in solution in the microtiter plate assay; also called biotin-NAT12
- binding result (RPPGC): binds
- binding result (LNA7): no binding
- binding result (FSPFR): no binding

Molecule: RPPGF (modifications not checked) [Arg-Pro-Pro-Gly-Phe (RPPGF)]
- cleavage product peak 2, as a share of the original NAT12 peak area, in the presence of 1 mM peptide (NAT12): 26%
- cleavage product peak 3, as a share of the original NAT12 peak area, in the presence of 1 mM peptide (NAT12): 31%
- reduction of the NAT12 HPLC peak area (peak 1) after alpha-thrombin in the presence of 1 mM peptide (NAT12): 57%
